Test results taken from the supplement of paper PMC10307832.

What was measured:
Test in all cases: relative viability (nuclei count vs DMSO), 5 days (fraction); higher = more cells survive
[1] = compound: C[C@H]([C@@H](C(=O)N)NC(=O)[C@@H]1CSSC[C@@H](C(=O)N[C@H](C(=O)N[C@@H](C(=O)N[C@H](C(=O)N1)CCCCN)CC2=CNC3=CC=CC=C32)CC4=CC=C(C=C4)O)NC(=O)[C@@H](CC5=CC=CC=C5)N)O [CAP-232] + O=C(c1cc(Cc2n[nH]c(=O)c3ccccc23)ccc1F)N1CCN(C(=O)C2CC2)CC1 [Olaparib] (partner 8 µM)
Method in brief: (§1)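 For relative viability, nuclei counts in treated wells were divided by those in vehicle wells. Lung cancer cell lines had been pin-tool dosed in 1536-well plates the day after seeding and cultured for 5 days, then fixed and stained in one step (final 0.05% Triton X-100, 1% formaldehyde, 1 ug/ml Hoechst) and imaged at 4×. Doses were one drug alone or a fixed anchor-drug dose plus five library-drug doses (not always all listed) in √10 steps, and values are duplicate-plate medians.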

[2] = compound: C[C@H]([C@@H](C(=O)N)NC(=O)[C@@H]1CSSC[C@@H](C(=O)N[C@H](C(=O)N[C@@H](C(=O)N[C@H](C(=O)N1)CCCCN)CC2=CNC3=CC=CC=C32)CC4=CC=C(C=C4)O)NC(=O)[C@@H](CC5=CC=CC=C5)N)O [CAP-232] + Nc1nc2[nH]cc(CCc3ccc(C(=O)N[C@@H](CCC(=O)O)C(=O)O)cc3)c2c(=O)[nH]1 [Pemetrexed] (partner 0.2 µM)
Method in brief: as §1

[3] = compound: C[C@H]([C@@H](C(=O)N)NC(=O)[C@@H]1CSSC[C@@H](C(=O)N[C@H](C(=O)N[C@@H](C(=O)N[C@H](C(=O)N1)CCCCN)CC2=CNC3=CC=CC=C32)CC4=CC=C(C=C4)O)NC(=O)[C@@H](CC5=CC=CC=C5)N)O [CAP-232] + C[C@@H](Oc1cc(-c2cnn(C3CCNCC3)c2)cnc1N)c1c(Cl)ccc(F)c1Cl [Crizotinib] (partner 1 µM)
Method in brief: as §1

[4] = compound: C[C@H]([C@@H](C(=O)N)NC(=O)[C@@H]1CSSC[C@@H](C(=O)N[C@H](C(=O)N[C@@H](C(=O)N[C@H](C(=O)N1)CCCCN)CC2=CNC3=CC=CC=C32)CC4=CC=C(C=C4)O)NC(=O)[C@@H](CC5=CC=CC=C5)N)O [CAP-232] + C[C@]1(O)C[C@@H](c2nc(-c3ccc4ccc(-c5ccccc5)nc4c3)c3c(N)nccn32)C1 [Linsitinib] (partner 1 µM)
Method in brief: as §1

[5] = compound: C[C@H]([C@@H](C(=O)N)NC(=O)[C@@H]1CSSC[C@@H](C(=O)N[C@H](C(=O)N[C@@H](C(=O)N[C@H](C(=O)N1)CCCCN)CC2=CNC3=CC=CC=C32)CC4=CC=C(C=C4)O)NC(=O)[C@@H](CC5=CC=CC=C5)N)O [CAP-232] + CC(=O)Nc1cccc(-n2c(=O)n(C3CC3)c(=O)c3c(Nc4ccc(I)cc4F)n(C)c(=O)c(C)c32)c1 [Trametinib] (partner 0.02 µM)
Method in brief: as §1

Row | Cell Line | relative viability ([1]; first compound 0.4 µM) | relative viability ([1]; first compound 1.265 µM) | relative viability ([1]; first compound 4 µM) | relative viability ([1]; first compound 12.65 µM) | relative viability ([2]; first compound 0.4 µM) | relative viability ([2]; first compound 1.265 µM) | relative viability ([2]; first compound 4 µM) | relative viability ([2]; first compound 12.65 µM) | relative viability ([3]; first compound 0.4 µM) | relative viability ([3]; first compound 1.265 µM) | relative viability ([3]; first compound 4 µM) | relative viability ([3]; first compound 12.65 µM) | relative viability ([4]; first compound 0.4 µM) | relative viability ([4]; first compound 1.265 µM) | relative viability ([4]; first compound 4 µM) | relative viability ([4]; first compound 12.65 µM) | relative viability ([5]; first compound 0.4 µM) | relative viability ([5]; first compound 1.265 µM) | relative viability ([5]; first compound 4 µM) | relative viability ([5]; first compound 12.65 µM)
1 | NCI-H1944 | 0.385 | 0.368 | 0.411 | 0.357 | 0.569 | 0.517 | 0.601 | 0.573 | 1.12 | 1.05 | 1.03 | 1.24 | 1.3 | 1.13 | 1.14 | 1.07 | 0.353 | 0.437 | 0.404 | 0.422
2 | NCI-H1975 | 0.825 | 0.894 | 1.04 | 0.363 | 0.32 | 0.289 | 0.307 | 0.197 | 1.11 | 1.07 | 1.08 | 0.892 | 1.03 | 1.02 | 1.07 | 0.65 | 0.368 | 0.262 | 0.743 | 0.225
3 | NCI-H1993 | 1.32 | 1.14 | 0.933 | 1.08 | 0.602 | 0.533 | 0.553 | 0.586 | 0.884 | 0.95 | 0.885 | 0.835 | 0.778 | 0.758 | 0.788 | 0.7 | 0.443 | 0.491 | 0.589 | 0.429
4 | NCI-H2009 | 0.799 | 0.684 | 0.74 | 0.52 | 1.07 | 1.06 | 1.11 | 1 | 1.11 | 1.01 | 1.05 | 1.09 | 1.2 | 1.18 | 1.22 | 1.09 | 0.237 | 0.251 | 0.247 | 0.301
